Data on four compounds can be found in patent publication US4251516A, “2-Deoxy-3-O-Demethylfortimicins” (Abbott Laboratories, priority 1979, dated 1981).

Structures can show the parent of a compound that is named as a salt. Where two headings read alike, the source gives them in different places.

Holding throughout (assay): two-fold agar dilution MIC, Mueller-Hinton agar
Type in all cases: cell-based

In test [1] the test system is Enterobacter aerogenes 13048. The conditions noted are these: read-out: Minimum Inhibitory Concentration. On the procedure: (§1) The in vitro antibiotic activities are determined by a two-fold agar dilution method using Mueller-Hinton agar, 10 ml per Petri dish. The agar is inoculated with one loopful (0.001 ml loop) of a 1:10 dilution of a 24 hour broth culture of the indicated test organism and incubated at 37° C. for 24 hours. Appropriate fortimicins are used as control antibiotics. The activities, listed in the following Table I, minimum inhibitory concentrations(MIC) are expressed in mcg/ml.

The test system of test [2] is Escherichia coli BL 3676(Res). The following applies: read-out: Minimum Inhibitory Concentration. How it is done:
as §1

Another test has as its system Escherichia coli Juhl. The following applies: read-out: Minimum Inhibitory Concentration. On the procedure: as §1
For test [3], the system named is Klebsiella pneumoniae 10031. The following applies: read-out: Minimum Inhibitory Concentration. How it is done: as §1
In test [4] the test system is Proteus mirabilis Fin. #9. The conditions noted are these: read-out: Minimum Inhibitory Concentration. On the procedure:
as §1

The test system of the next test is Proteus vulgaris JJ. The following applies: read-out: Minimum Inhibitory Concentration. How it is done: as §1
Another test has as its system Providencia 1577. The following applies: read-out: Minimum Inhibitory Concentration. How it is done:
as §1

For test [5], the system named is Pseudomonas aeruginosa 209. The conditions noted are these: read-out: Minimum Inhibitory Concentration. On the procedure: as §1
Test [6] has as its system Pseudomonas aeruginosa BMH #10. The conditions noted are these: read-out: Minimum Inhibitory Concentration. How it is done:
as §1

The test system of test [7] is Pseudomonas aeruginosa KY 8512. The following applies: read-out: Minimum Inhibitory Concentration. How it is done:
as §1

Test [8] concerns Pseudomonas aeruginosa KY 8516. The conditions noted are these: read-out: Minimum Inhibitory Concentration. On the procedure:
as §1

In test [9] the test system is Salmonella typhimurium Ed #9. The conditions noted are these: Salmonella enterica, read-out: Minimum Inhibitory Concentration. How it is done:
as §1

Another test relates to Serratia marcescens 4003. The conditions noted are these: read-out: Minimum Inhibitory Concentration. How it is done: as §1
The test system of another test is Shigella sonnei 9290. The conditions noted are these: 37° C., 24 hours, read-out: Minimum Inhibitory Concentration. How it is done:
as §1

The subject of test [10] is Staphyloccocus aureus Smith. The following applies: Staphylococcus aureus, read-out: Minimum Inhibitory Concentration. How it is done: as §1
Test [11] concerns Streptoccocus faecalis 10541. The conditions noted are these: read-out: Minimum Inhibitory Concentration. How it is done: as §1
The subject of test [12] is Pseudomonas aeruginosa 27853. The conditions noted are these: read-out: Minimum Inhibitory Concentration. On the procedure:
as §1

Where [13] appears, read: Klebsiella aerogenes, Enterobacter aerogenes 13048, agar dilution, 37° C., 24 hours.
Where [14] appears, read: Escherichia coli BL 3676(Res), agar dilution, 37° C., 24 hours.
Where [15] appears, read: Escherichia coli Juhl, agar dilution, 37° C., 24 hours.
The mark [16] stands for this setting: Klebsiella pneumoniae 10031, agar dilution, 37° C., 24 hours.
The mark [17] stands for this setting: Proteus mirabilis Fin. #9, agar dilution, 37° C., 24 hours.
[18] abbreviates: Proteus vulgaris JJ, agar dilution, 37° C., 24 hours.
[19] abbreviates: Providencia 1577, agar dilution, 37° C., 24 hours.
Setting [20] is: Pseudomonas aeruginosa 209, agar dilution, 37° C., 24 hours.
Where [21] appears, read: Pseudomonas aeruginosa BMH #10, agar dilution, 37° C., 24 hours.
Setting [22] is: KY8512, Pseudomonas aeruginosa KY 8512, agar dilution, 37° C., 24 hours.
The mark [23] stands for this setting: KY8516, Pseudomonas aeruginosa KY 8516, agar dilution, 37° C., 24 hours.
Setting [24] is: Salmonella typhimurium Ed #9, agar dilution, 37° C., 24 hours.
Where [25] appears, read: Serratia marcescens 4003, agar dilution, 37° C., 24 hours.
Where [26] appears, read: Staphyloccocus aureus Smith, agar dilution, 37° C., 24 hours.
[27] abbreviates: Streptoccocus faecalis 10541, agar dilution, 37° C., 24 hours.
Where [28] appears, read: Pseudomonas aeruginosa, 27853, 24 h.
Setting [29] is: Pseudomonas aeruginosa, KY8512, 24 h.

Turning to `CC(N)C1CCC(N)C(OC2C(N)C(O)C(O)C(N(C)C(=O)CN)C2O)O1` (stereo not shown) [3-O-Demethylfortimicin A . 4HCl, 3-O-demethylfortimicin A tetrahydrochloride], the MIC in test [1] (setting [13]) was 2.1 µg/mL; in test [2] (setting [14]), 8.6 µg/mL; in the test on Escherichia coli Juhl (setting [15]), 2.1 µg/mL; in [3] (setting [16]), 1.1 µg/mL; in test [4] (setting [17]) it was 2.1 µg/mL; in the test with Proteus vulgaris JJ (setting [18]), 2.1 µg/mL. For the same compound, the MIC in the test with Providencia 1577 (setting [19]) turned out to be 1.1 µg/mL; in test [5] (setting [20]), 69 µg/mL; in test [6] (setting [21]), 0.27 µg/mL; in [7] (setting [22]), 2.1 µg/mL; in [8] (setting [23]), 69 µg/mL; in test [9] (setting [24]), 1.1 µg/mL. Further, the MIC in the test with Serratia marcescens 4003 (setting [25]) was 4.3 µg/mL; in the test with Shigella sonnei 9290, 4.3 µg/mL; in [10] (setting [26]), 0.54 µg/mL; in test [11] (setting [27]), 17 µg/mL.

`COC1CC(N)C(OC2OC(C(C)N)CCC2N)C(O)C1N(C)C(=O)CN` (stereo not shown) [2-Deoxyfortimicin A . 4 HCl, 2-Deoxyfortimicin A tetrahydrochloride]: the MIC in [1] (setting [13]) came to 3.1 µg/mL; in test [2] (setting [14]) it was 25 µg/mL; in the test with Escherichia coli Juhl (setting [15]), 6.2 µg/mL; in [3] (setting [16]) it was 1.56 µg/mL; in test [4] (setting [17]), 6.2 µg/mL; in the test with Proteus vulgaris JJ (setting [18]), 3.1 µg/mL. Also, the MIC in the test with Providencia 1577 (setting [19]) came to 3.1 µg/mL; in test [5] (setting [20]) it was 100 µg/mL; in test [12] (setting [28]), 12.5 µg/mL; in test [6] (setting [21]), 0.78 µg/mL; in test [7] (setting [29]) it was 12.5 µg/mL; in test [8] (setting [23]), 50 µg/mL. For the same compound, the MIC in test [9] (setting [24]) was determined as 1.56 µg/mL; with Serratia marcescens 4003 (setting [25]), 3.1 µg/mL; with Shigella sonnei 9290, 12.5 µg/mL; in test [10] (setting [26]), 0.78 µg/mL; in test [11] (setting [27]), 50 µg/mL.

Regarding `COC1C(O)C(N)C(OC2OC(C(C)N)CCC2N)C(O)C1N(C)C(=O)CN` (stereo not shown) [Fortimicin A . 4HCl, fortimicin A tetrahydrochloride], the MIC in test [1] (Klebsiella aerogenes, 13048, 24 h) amounted to 3.1 µg/mL; in test [2] (Escherichia coli, 24 h) it was 25 µg/mL; with Escherichia coli Juhl (Escherichia coli, 24 h), 6.2 µg/mL; in [3] (Klebsiella pneumoniae, 10031, 24 h), 3.1 µg/mL; in test [4] (Proteus mirabilis, 24 h), 6.2 µg/mL; with Proteus vulgaris JJ (Proteus vulgaris, 24 h) it was 3.1 µg/mL. Also, the MIC with Providencia 1577 (Providencia, 1577, 24 h) was determined as 6.2 µg/mL; in [5] (Pseudomonas aeruginosa, 209, 24 h), 100 µg/mL; in test [12] (setting [28]) it was 12.5 µg/mL; in test [6] (Pseudomonas aeruginosa, 24 h), 0.78 µg/mL; in test [7] (setting [29]) it was 12.5 µg/mL; in test [8] (Pseudomonas aeruginosa, KY8516, 24 h), 100 µg/mL. Further, the MIC was 1.56 µg/mL in test [9] (TYPHIMURIUM, 24 h); 3.1 µg/mL in the test with Serratia marcescens 4003 (Serratia marcescens, 4003, 24 h); 12.5 µg/mL in the test with Shigella sonnei 9290; 0.78 µg/mL in test [10] (24 h); 50 µg/mL in [11] (24 h).

For the compound `CC(N)C1CCC(N)C(OC2C(N)CC(O)C(N(C)C(=O)CN)C2O)O1` (stereo not shown) [2-Deoxy-3-O-demethylfortimicin A . 4HCl, 2-Deoxy-3-O-Demethylfortimicin A tetrahydrochloride], the MIC is 3.1 µg/mL in test [1] (setting [13]); 12.5 µg/mL in test [2] (Escherichia coli, 24 h); 6.2 µg/mL with Escherichia coli Juhl (setting [15]); 3.1 µg/mL in [3] (setting [16]); 3.1 µg/mL in [4] (setting [17]); 3.1 µg/mL in the test with Proteus vulgaris JJ (setting [18]). The MIC is 1.56 µg/mL in the test with Providencia 1577 (setting [19]); 100 µg/mL in test [5] (setting [20]); 6.2 µg/mL in test [12] (Pseudomonas aeruginosa 27853, agar dilution, 37° C., 24 hours); 0.78 µg/mL in test [6] (setting [21]); 3.1 µg/mL in [7] (setting [22]); 100 µg/mL in test [8] (setting [23]). Further, the MIC in [9] (setting [24]) stood at 1.56 µg/mL; in the test on Serratia marcescens 4003 (setting [25]), 3.1 µg/mL; with Shigella sonnei 9290, 12.5 µg/mL; in test [10] (setting [26]), 0.39 µg/mL; in test [11] (setting [27]) it was 50 µg/mL.
